Measured values reported in US5328906A, “0-(3-amino-2-hydroxypropyl)-hydroximic acid halides and process for preparing the same” (Biorex Kutato-Fejleszto KFT, priority 1993, dated 1994).

Tests used:
[1] = acute toxicity LD50 on Wistar rats; settings: rat, in vivo, iv
diabetic aorta = assay: beta-blocking effect on diabetic (Streptosotocin treated) rat aorta spiral and/or ring preparate, noradrenalin contractions; settings: aorta spiral of diabetic animals treated with Streptosotocin
Procedure: (§1) The beta-blocking effect of the compounds according to the present invention was tested on rat aorta spiral and/or ring preparate <J. Pharmacol. Exp. Therap. 158, 531 (1967)>. The experimental diabetes was induced with Streptosotocin <2-(3-nitroso-3-methylureido)-2-deoxy-D-glucose>. The reaction was evaluated as positive when the alpha stimulating effect of the noradrenalin on the control preparate, i.e. that having not been treated with Streptosotocin, was not influenced, but protected on the diabetic aorta. In the tests carried out with the compounds according to the present invention a general selective effect occurred, manifesting in case of diabetic tests in a strong, in case of normal tests in the absence of or in the presence of only a slight beta-blocking effect.
Experiments were carried out to study whether on the aorta spiral preparates of diabetic animals treated with Streptosotocin the Inderal protects the contractions induced by noradrenalin. As control, animals previously not treated with Streptosotocin were used. The results obtained essentially conformed to those known from the literature <Amer. […] (Endocrinology. Vol. 93, No. 3, September 1973). […]

[2] = tested on: control preparate (rat aorta); assay: beta-blocking effect on control (not Streptosotocin treated) rat aorta spiral and/or ring preparate, noradrenalin contractions; settings: aorta spiral of animals not treated with Streptosotocin (normal tests)
Procedure: as §1
Experiments were carried out to study whether on the aorta spiral preparates of diabetic animals treated with Streptosotocin the Inderal protects the contractions induced by noradrenalin. As control, animals previously not treated with Streptosotocin were used. The results obtained essentially conformed to those known from the literature <Amer. […] (Endocrinology. Vol. 93, No. 3, September 1973).

Row | Structure (SMILES) | LD50 [1] [mg/kg] | protection against the alpha stimulating effect (contractions) of noradrenalin (diabetic aorta) | protection against the alpha stimulating effect (contractions) of noradrenalin [2]
1 | OC(CON=C(Cl)c1cccnc1)CN1CCCCC1 (stereo not drawn) [Example 5, O-(3-piperidino-2-hydroxy-propyl)-3-piridyl-hydroximic acid chloride] | 110 | – | –
2 | CC(C)NCC(O)COc1cccc2ccccc12 (stereo not drawn) [Inderal, 1-isopropylamino-3-(naphtyloxy)-propan-2-ol] | – | the alpha stimulating effect of noradrenalin was protected by the Inderal in diabetic tests | not in the normal tests
